Assay in all cases: MIC, broth microdilution (CLSI), reference strain
Holding throughout (conditions): CAMHB

Assay [1] has as its system Pseudomonas aeruginosa ATCC 27853.
Assay [2] has as its system Escherichia coli ATCC 25922.
Assay [3] concerns Staphylococcus aureus ATCC 13709.
The subject of assay [4] is Acinetobacter baumannii ATCC 19606.

Square brackets hold non-standard residues; d marks the D form. Peptide text beside a SMILES is read from it. Phe(4-CONH2) = NC(=O)c1ccc(C[C@H](N)C(=O)O)cc1; Phe(4-Cl) = N[C@@H](Cc1ccc(Cl)cc1)C(=O)O; Phe(4-NH2) = Nc1ccc(C[C@H](N)C(=O)O)cc1; Phe(4-F) = N[C@@H](Cc1ccc(F)cc1)C(=O)O; Phe(4-Me) = Cc1ccc(C[C@H](N)C(=O)O)cc1; Dab(3S-OH) = NC[C@H](O)[C@H](N)C(=O)O; 2Pal = N[C@@H](Cc1ccccn1)C(=O)O; 3Pal = N[C@@H](Cc1cccnc1)C(=O)O; 4Pal = N[C@@H](Cc1ccncc1)C(=O)O; ΔZArg = N=C(N)NCC/C=C(\N)C(=O)O; NMeK = CN[C@@H](CCCCN)C(=O)O; dOrn = NCCC[C@@H](N)C(=O)O

Data on eight compounds can be found in patent US10626144B2, “Peptide derivatives and uses thereof” (Nosopharm, priority 2014, dated 2020).

In the case of `CN[C@@H](CCCCN)C(=O)N[C@H](C(=O)N[C@@H](C)C(=O)NCC(=O)N[C@H](CCCN)C(=O)N1CCC[C@H]1C(=O)N[C@@H](Cc1ccc(Cl)cc1)C(=O)N[C@@H](CCCCN)C(=O)N/C(=C\CCNC(=N)N)C(=O)O)[C@@H](O)CN` [24.98] (H-[NMeK][Dab(3S-OH)]AG[dOrn]P[Phe(4-Cl)]K[ΔZArg]-OH), the “Pa: MIC Pseudomonas aeruginosa ATCC 27853” value in assay [1] is recorded as “− (>32 μg/mL)”. For the same compound, in assay [2], the “Ec: MIC Escherichia coli ATCC 25922” value is listed as “+ (≤32 μg/mL)”. Further, the “Sa: MIC Staphylococcus aureus ATCC 13709” value in assay [3] is “++ (≤8 μg/mL)”. Besides, the “Ab: MIC Acinetobacter baumannii ATCC 19606” value in assay [4] was “− (>32 μg/mL)”.

As for `C[C@H](NC(=O)[C@@H](NC(=O)[C@@H](N)CCCCN)[C@@H](O)CN)C(=O)NCC(=O)N[C@H](CCCN)C(=O)N1CCC[C@H]1C(=O)N[C@@H](Cc1ccc(C(N)=O)cc1)C(=O)N[C@@H](CCCCN)C(=O)N/C(=C\CCNC(=N)N)C(=O)O` [24.101] (H-K[Dab(3S-OH)]AG[dOrn]P[Phe(4-CONH2)]K[ΔZArg]-OH), the “Pa: MIC Pseudomonas aeruginosa ATCC 27853” value in assay [1] is reported as “− (>32 μg/mL)”. Also, the “Ec: MIC Escherichia coli ATCC 25922” value in assay [2] is “+ (≤32 μg/mL)”. Also, in assay [3], the “Sa: MIC Staphylococcus aureus ATCC 13709” value is on record as “++ (≤8 μg/mL)”. The “Ab: MIC Acinetobacter baumannii ATCC 19606” value in assay [4] is “− (>32 μg/mL)”.

Turning to `C[C@H](NC(=O)[C@@H](NC(=O)[C@@H](N)CCCCN)[C@@H](O)CN)C(=O)NCC(=O)N[C@H](CCCN)C(=O)N1CCC[C@H]1C(=O)N[C@@H](Cc1ccc(F)cc1)C(=O)N[C@@H](CCCCN)C(=O)N/C(=C\CCNC(=N)N)C(=O)O` [24.102] (H-K[Dab(3S-OH)]AG[dOrn]P[Phe(4-F)]K[ΔZArg]-OH), the “Pa: MIC Pseudomonas aeruginosa ATCC 27853” value in assay [1] was “− (>32 μg/mL)”. Besides, the “Ec: MIC Escherichia coli ATCC 25922” value in assay [2] is recorded as “+ (≤32 μg/mL)”. The “Sa: MIC Staphylococcus aureus ATCC 13709” value in assay [3] is “++ (≤8 μg/mL)”. Also, in assay [4], the “Ab: MIC Acinetobacter baumannii ATCC 19606” value is reported as “− (>32 μg/mL)”.

Regarding `Cc1ccc(C[C@H](NC(=O)[C@@H]2CCCN2C(=O)[C@@H](CCCN)NC(=O)CNC(=O)[C@H](C)NC(=O)[C@@H](NC(=O)[C@@H](N)CCCCN)[C@@H](O)CN)C(=O)N[C@@H](CCCCN)C(=O)N/C(=C\CCNC(=N)N)C(=O)O)cc1` [24.104] (H-K[Dab(3S-OH)]AG[dOrn]P[Phe(4-Me)]K[ΔZArg]-OH), in assay [1], the “Pa: MIC Pseudomonas aeruginosa ATCC 27853” value is on record as “− (>32 μg/mL)”. For the same compound, the “Ec: MIC Escherichia coli ATCC 25922” value in assay [2] is listed as “+ (≤32 μg/mL)”. For the same compound, the “Sa: MIC Staphylococcus aureus ATCC 13709” value in assay [3] is listed as “++ (≤8 μg/mL)”. In addition, the “Ab: MIC Acinetobacter baumannii ATCC 19606” value in assay [4] was “− (>32 μg/mL)”.

As for `C[C@H](NC(=O)[C@@H](NC(=O)[C@@H](N)CCCCN)[C@@H](O)CN)C(=O)NCC(=O)N[C@H](CCCN)C(=O)N1CCC[C@H]1C(=O)N[C@@H](Cc1ccc(N)cc1)C(=O)N[C@@H](CCCCN)C(=O)N/C(=C\CCNC(=N)N)C(=O)O` [24.105] (H-K[Dab(3S-OH)]AG[dOrn]P[Phe(4-NH2)]K[ΔZArg]-OH), the “Pa: MIC Pseudomonas aeruginosa ATCC 27853” value in assay [1] is “− (>32 μg/mL)”. For the same compound, the “Ec: MIC Escherichia coli ATCC 25922” value in assay [2] is “+ (≤32 μg/mL)”. For the same compound, the “Sa: MIC Staphylococcus aureus ATCC 13709” value in assay [3] is “+ (≤32 μg/mL)”. Besides, the “Ab: MIC Acinetobacter baumannii ATCC 19606” value in assay [4] is recorded as “− (>32 μg/mL)”.

For `C[C@H](NC(=O)[C@@H](NC(=O)[C@@H](N)CCCCN)[C@@H](O)CN)C(=O)NCC(=O)N[C@H](CCCN)C(=O)N1CCC[C@H]1C(=O)N[C@@H](Cc1ccccn1)C(=O)N[C@@H](CCCCN)C(=O)N/C(=C\CCNC(=N)N)C(=O)O` [24.106] (H-K[Dab(3S-OH)]AG[dOrn]P[2Pal]K[ΔZArg]-OH), in assay [1], the “Pa: MIC Pseudomonas aeruginosa ATCC 27853” value was “− (>32 μg/mL)”. Moreover, the “Ec: MIC Escherichia coli ATCC 25922” value in assay [2] is “+ (≤32 μg/mL)”. In assay [3], the “Sa: MIC Staphylococcus aureus ATCC 13709” value is listed as “+ (≤32 μg/mL)”. In addition, in assay [4], the “Ab: MIC Acinetobacter baumannii ATCC 19606” value was “− (>32 μg/mL)”.

Turning to `C[C@H](NC(=O)[C@@H](NC(=O)[C@@H](N)CCCCN)[C@@H](O)CN)C(=O)NCC(=O)N[C@H](CCCN)C(=O)N1CCC[C@H]1C(=O)N[C@@H](Cc1cccnc1)C(=O)N[C@@H](CCCCN)C(=O)N/C(=C\CCNC(=N)N)C(=O)O` [24.107] (H-K[Dab(3S-OH)]AG[dOrn]P[3Pal]K[ΔZArg]-OH), the “Pa: MIC Pseudomonas aeruginosa ATCC 27853” value in assay [1] was “− (>32 μg/mL)”. The “Ec: MIC Escherichia coli ATCC 25922” value in assay [2] is on record as “+ (≤32 μg/mL)”. Besides, in assay [3], the “Sa: MIC Staphylococcus aureus ATCC 13709” value was “+ (≤32 μg/mL)”. The “Ab: MIC Acinetobacter baumannii ATCC 19606” value in assay [4] is “− (>32 μg/mL)”.

As for `C[C@H](NC(=O)[C@@H](NC(=O)[C@@H](N)CCCCN)[C@@H](O)CN)C(=O)NCC(=O)N[C@H](CCCN)C(=O)N1CCC[C@H]1C(=O)N[C@@H](Cc1ccncc1)C(=O)N[C@@H](CCCCN)C(=O)N/C(=C\CCNC(=N)N)C(=O)O` [24.108] (H-K[Dab(3S-OH)]AG[dOrn]P[4Pal]K[ΔZArg]-OH), the “Pa: MIC Pseudomonas aeruginosa ATCC 27853” value in assay [1] is recorded as “− (>32 μg/mL)”. Besides, the “Ec: MIC Escherichia coli ATCC 25922” value in assay [2] was “− (>32 μg/mL)”. The “Sa: MIC Staphylococcus aureus ATCC 13709” value in assay [3] is listed as “+ (≤32 μg/mL)”. In assay [4], the “Ab: MIC Acinetobacter baumannii ATCC 19606” value is “− (>32 μg/mL)”.
